From the Kinase Knowledgebase extract (Sharma et al. 2016) come the findings set out here.

Chain of MAPK14 (human) (Q16539 whole entry, looked up): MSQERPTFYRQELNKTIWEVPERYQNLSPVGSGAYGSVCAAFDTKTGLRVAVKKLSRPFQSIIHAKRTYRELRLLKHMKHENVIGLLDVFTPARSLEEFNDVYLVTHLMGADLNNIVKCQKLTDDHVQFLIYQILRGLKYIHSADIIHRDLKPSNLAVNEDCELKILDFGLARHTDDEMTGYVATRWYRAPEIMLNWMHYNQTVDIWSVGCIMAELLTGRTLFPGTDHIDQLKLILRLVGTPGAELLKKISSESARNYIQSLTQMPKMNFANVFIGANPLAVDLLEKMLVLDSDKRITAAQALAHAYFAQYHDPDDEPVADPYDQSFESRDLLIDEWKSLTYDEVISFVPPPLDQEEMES

The test has as its target MAPK14 (human) (UniProt Q16539). Kind of test: Inhibition of MAPK14 Kinase Activity. The conditions noted are these: THP.1 monocytic.
As usually defined, the IC50 is the midpoint of a concentration-inhibition curve. In turn, `COC(=O)c1ccc(-n2c(C)cc(OCc3ccc(F)cc3F)c(Br)c2=O)c(Cl)c1` returned an IC50 of less than 1 µM.
Under `Cc1c(CO)c(OCc2ccc(F)cc2F)c(Br)c(=O)n1-c1c(F)cccc1F` stands 1 to 25 µM; under `Cc1cc(OCc2ccc(F)cc2F)c(Br)c(=O)n1Cc1ccccc1C#N`, 1 to 25 µM; under `CCOC(=O)CNc1nc(C)ncc1Cn1c(C)cc(OCc2ccc(F)cc2F)c(Br)c1=O`, 1 to 25 µM.
`CNC(=O)c1ccc(C)c(-n2c(C)cc(OCc3ccc(F)cc3F)c(Cl)c2=O)c1`: the IC50 was less than 1 µM.
For the compound `Cc1cc(OCc2ccc(F)cc2F)c(Cl)c(=O)n1-c1c(F)cc(F)cc1F`, the IC50 was less than 1 µM.
Under `C=CCn1c(C)cc(OCc2ccc(F)cc2F)c(Br)c1=O` stands less than 1 µM; under `Cc1cc(OCc2ccc(F)cc2F)c(Br)c(=O)n1-c1c(F)cc(N(C)CCO)cc1F`, less than 1 µM.
Under `Cc1cccc(C)c1-n1c(C)cc(OCc2c(F)cc(F)cc2F)c(Br)c1=O` stands less than 1 µM; under `O=C(Nc1ccn(Cc2cccc(F)c2)c(=O)c1Br)c1ccc(F)cc1`, 1 to 25 µM.
Under `CCc1c(OCc2ccccc2)ccn(Cc2ccccc2)c1=O` stands 1 to 25 µM; under `O=c1c(C(F)(F)F)c(OCc2ccccc2)ccn1Cc1cccc(F)c1`, 25 to 100 µM.
In the case of `CCOC(=O)c1ccc(-n2c(C)cc(OCc3ccc(F)cc3F)c(Br)c2=O)nc1`, the IC50 fell in the range of 25 to 100 µM.
Under `Cc1cc(OCc2ccc(F)cc2F)c(Br)c(=O)n1-c1cccc(C(=O)N(C)C)c1` stands less than 1 µM.
As to `Cc1c(I)c(NCc2ccccc2)c(Br)c(=O)n1-c1c(F)cccc1F`, the IC50 is 1 to 25 µM.
`Cc1cc(OCc2ccccc2)cc(=O)n1Cc1ccccc1` displayed an IC50 of 25 to 100 µM.
Turning to `O=c1c(Br)c(OCc2ccccc2-c2ccccc2)ccn1Cc1cccc(F)c1`, the IC50 is more than 100 µM.
Under `Cc1ccc(C(=O)NCCO)cc1-n1c(C)cc(OCc2ccc(F)cc2F)c(Br)c1=O` stands less than 1 µM; under `Cc1cc(OCc2ccc(F)cc2F)c(Br)c(=O)n1-c1cccc(CNS(C)(=O)=O)c1`, 1 to 25 µM; under `Cc1cc(OCc2ccc(F)cc2F)c(Br)c(=O)n1CC1CC1`, less than 1 µM.
`Cc1cc(OCc2ccc(F)cc2F)c(Br)c(=O)n1Cc1cnc(CO)cn1` gave a concentration for half-maximal inhibition (IC50) of less than 1 µM.
Under `CNC(=O)c1cccc(-n2c(C)cc(OCc3ccc(F)cc3F)c(Br)c2=O)c1` stands less than 1 µM; under `COC(=O)c1ccc(C)c(-n2c(C)cc(OCc3ccc(F)cc3F)c(Cl)c2=O)c1`, less than 1 µM; under `COCC(=O)NCc1cccc(-n2c(C)cc(OCc3ccc(F)cc3F)c(Br)c2=O)c1`, 1 to 25 µM.
Under `Cc1c(C#N)c(OCc2ccc(F)cc2F)c(Br)c(=O)n1-c1c(F)cccc1F` stands 25 to 100 µM; under `O=c1c(Br)c(NCc2ccc(F)cc2F)ccn1Cc1cccc(F)c1`, less than 1 µM; under `Cc1cc(OCc2ccc(F)cc2F)c(Br)c(=O)n1Cc1ccc(C(=O)N(CCO)CCO)cc1`, less than 1 µM.
Under `CCOC(=O)c1cnc(Cn2c(C)cc(OCc3ccc(F)cc3F)c(Cl)c2=O)cn1` stands less than 1 µM; under `COc1cccc(COc2ccn(Cc3cccc(F)c3)c(=O)c2Br)c1`, 1 to 25 µM; under `Cc1ccc(CO)cc1-n1c(C)cc(OCc2ccc(F)cc2F)c(Br)c1=O`, less than 1 µM.
Compound `Cc1cc(OCc2ccc(F)cc2F)c(Br)c(=O)n1-c1cccc(CN(C)C)c1` had an IC50 of 1 to 25 µM.
